The test system of data set [1] is interferon-beta (IFN-b). Put plainly: polyIC-induced IFN-b expression in MLE-12 cells, ELISA. The data set is classed as cell-based, mouse. To be noted: 5 mg/ml polyIC, 16 hours; for expression level of IFN-b: vs control group treated only with polyIC. Here is the method:
Specifically, polyinosinic:polycytidylic acid (polyIC), which is a synthetic ribonucleic acid known to be associated with viral infection among the PAMPs and promotes the production of interferon and is analogous to an RNA virus gene, was used to induce a viral infection response. First, a serum-free cell culture medium containing 5 mg/ml polyIC and MQP-15, MQP-23, MQP-31, MQP-37, MQP-Y9 or MQP-T234 was treated with 1×10^5 cells of a mouse lung epithelial cell line (MLE-12) for 16 hours. Then, the supernatant was obtained and the expression level of interferon-beta (IFN-b) was checked by enzyme-linked immunosorbent assay (ELISA).
(§1) Specifically, LPS and ATP were used to induce an inflammasome response caused by bacterial infection, and polyIC was used to induce an inflammatory response caused by viral infection. First, 1 mg/ml LPS and 5 mM or 1 mM novel alanine-substituted peptide were mixed in a serum-free cell culture medium, followed by treatment with 1×10^5 cells of IC21. Thereafter, 5 mM ATP and 5 mM or 1 mM novel alanine-substituted peptide were mixed in a serum-free cell culture medium and treated for 30 minutes. Then, the supernatant was obtained and the expression level of IL-1b was checked by ELISA. Also, 5 mg/ml polyIC and 25 mM or 2 mM novel alanine-substituted peptide were mixed in a serum-free cell culture medium, followed by treatment with 1×10^5 cells of MLE-12 for 16 hours. Thereafter, the supernatant was obtained and the expression level of IFN-b was checked by ELISA.
as §1, with “2” for “5 mM or 1”, “amino acid-substituted” for “alanine-substituted”, “and” for “and 25 mM or”
Specifically, polyIC was used to induce a viral infection response. First, a serum-free cell culture medium containing 5 mg/ml polyIC and MQP-37, MQP-37A6, MQP-37D6W, MQP-37D6Y, MQP-37D6H, MQP-37D6K, MQP-37D6R or MQP-37D6V was treated with 1×10^5 cells of MLE-12 for 16 hours. Then, the supernatant was obtained and the expression level of IFN-b was checked by ELISA.
On the technique in general: An ELISA detects its analyte on a solid surface through an enzyme-linked reagent.

Data set [2] concerns IC21. Briefly: XTT cytotoxicity test. The data set is classed as cell-based, mouse. Conditions: at a concentration of 10 mM; FIGS. 4-B and 4-C. Here is the method: Specifically, in order to check the cytotoxicity of the peptides, the XTT test method for measuring the activity of mitochondria in cells was used. First, […] 16 hours, followed by XTT assay for 1 hour to measure the amount of water-soluble formazan produced by reduction by dehydrogenase in the mitochondria.
(Tetrazolium dyes change colour on reduction, which living cells bring about.)

The test system of data set [3] is interleukin-1beta (IL-1b). Put plainly: IL-1b expression induced by LPS, OMV or LPS and nigericin in IC21, ELISA. The class given is cell-based, mouse. To be noted: 1 mg/ml LPS 4 hours, 5 mM nigericin 1 hour, FIG. 5B-D. On the procedure: Specifically, LPS (lipopolysaccharide) and Gram-negative bacteria-derived outer membrane vesicle (OMV) were used as endotoxins to induce the inflammasome response caused by bacterial infection. First, 5 mM MQP-15, MQP-23, MQP-31 or MQP-37 was added to a serum-free cell culture medium containing 0.1 mg/ml LPS or OMV, followed by treatment with 1×10^5 cells of IC21 for 6 hours. Also, MQP-37 or MQP-Y9 was added to a serum-free cell culture medium containing 1 mg/ml LPS and 5 mM nigericin, followed by treatment for 5 hours (LPS treatment-4 hours; nigericin treatment-1 hour). Then, the supernatant was obtained and the expression level of interleukin-1beta (IL-1b) was checked by ELISA, and the cells were lysed and subjected to SDS-PAGE, and the inflammasome factors were analyzed by the Western blot.

The test system of data set [4] is interleukin-6 (IL-6). Briefly: LPS-induced IL-6 expression in IC21, ELISA. The data set is classed as cell-based, mouse. To be noted: 0.1 mg/ml LPS, 6 hours.
Procedure: Specifically, LPS was used to induce an inflammatory response caused by bacterial infection. First, MQP-15, MQP-23, MQP-31, MQP-37 or MQP-Y9 was added to a serum-free cell culture medium containing 0.1 mg/ml LPS, followed by treatment with 1×10^5 cells of IC21 for 6 hours. Then, the supernatant was obtained and the expression levels of interleukin-6 (IL-6) and a tumor necrosis factor-alpha (TNF-a) were checked by ELISA.
Data set [5] relates to NF-κB. Briefly: LPS-induced phosphorylation of NF-kB in IC21, Western blot. The data set is classed as cell-based, mouse. Conditions: 5 mM peptide, 10 ng/ml endotoxin, 6 hours, vs control treated with LPS only. On the technique in general: Immunoblotting shows a protein as a band on a membrane.
Source text: Specifically, LPS was used to induce an immune activation response caused by bacterial infection, and the phosphorylation of nuclear factor kappa-light-chain-enhancer of activated B cells (NF-kB) was checked to identify the mechanism of the immune activation response. […] Thereafter, the cells were washed with a PBS solution and then lysed with a RIPA buffer, and the supernatant was separated. In order to measure the change in the phosphorylation amount of NF-κB protein with the separated supernatant, the Western blot was performed as in Example 2.
In data set [6] the target is T1, MAVS proteins (Mus musculus, UniProt Q8VCF0).
T1 construct: mitochondria in IC21 were isolated with a hypotonic buffer and centrifugation; endogenous in cells; host or cells: IC21 mouse peritoneal macrophage cell line
T1 sequence (Q8VCF0 1-503): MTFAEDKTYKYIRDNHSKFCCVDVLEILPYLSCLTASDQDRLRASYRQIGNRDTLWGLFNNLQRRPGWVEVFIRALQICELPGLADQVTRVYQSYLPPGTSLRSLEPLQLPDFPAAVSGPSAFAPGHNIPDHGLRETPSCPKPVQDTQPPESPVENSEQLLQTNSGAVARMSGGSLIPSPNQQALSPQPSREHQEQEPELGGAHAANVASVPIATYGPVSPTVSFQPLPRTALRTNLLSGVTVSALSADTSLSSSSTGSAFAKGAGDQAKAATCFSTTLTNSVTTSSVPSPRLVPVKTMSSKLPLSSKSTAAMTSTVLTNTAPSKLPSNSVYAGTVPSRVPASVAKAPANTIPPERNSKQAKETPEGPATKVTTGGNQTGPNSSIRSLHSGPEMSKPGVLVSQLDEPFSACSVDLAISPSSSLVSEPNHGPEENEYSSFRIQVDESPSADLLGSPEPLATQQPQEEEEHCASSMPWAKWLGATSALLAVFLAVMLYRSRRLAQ
Briefly: MAVS aggregation induced by LPS and nigericin, Western blot of isolated mitochondria. The data set is classed as cell-based. To be noted: 5 mM peptide; IC21; 1 mg/ml LPS 4 hours then 5 mM nigericin 1 hour; vs control group treated with endotoxin and nigericin. On the procedure: Specifically, the aggregation of MAVS proteins was induced by stimulation with pathogen-associated molecular patterns (PAMPs), and endotoxin (lipopolysaccharide (LPS)) and nigericin were used as the PAMPs. First, 5 mM MQP-15, MQP-23, MQP-31 or MQP-37 was added to a serum-free cell culture medium containing 1 mg/ml LPS, followed by treatment with 1×10^5 cells of a mouse peritoneal macrophage cell line (IC21) for 4 hours. Then, 5 mM MQP-15, MQP-23, MQP-31 or MQP-37 was added to a serum-free cell culture medium containing 5 mM nigericin, followed by treatment with IC21 for additional 1 hour. Thereafter, mitochondria in IC21 were isolated with a hypotonic buffer and centrifugation. Then, in order to check the result of MAVS aggregation by the Western blot, a sample was prepared using a semi-denaturing detergent in the isolated mitochondria and electrophoresis was performed. After the electrophoretically isolated mitochondrial protein was transferred to a polyvinylidene difluoride (PVDF) membrane, a primary antibody recognizing the MAVS proteins and a secondary antibody recognizing the primary antibody were additionally treated. Thereafter, the aggregation of MAVS proteins was checked by inducing a chemiluminescence reaction of the secondary antibody.

The test system of data set [7] is IL-1b. Briefly: LPS/ATP-induced IL-1b expression (inflammasome response) in IC21, ELISA. The class given is cell-based, mouse. To be noted: 1 mg/ml LPS, 5 mM ATP 30 minutes, 2 mM peptide. On the procedure: as §1
as §1, with “2” for “5 mM or 1”, “amino acid-substituted” for “alanine-substituted”, “and” for “and 25 mM or”
Specifically, LPS was used to induce an inflammatory response caused by bacterial infection. First, MQP-37 or MQP-37A6 was added to a serum-free cell culture medium containing 0.1 mg/ml LPS, followed by treatment with 1×10^5 cells of IC21 for 6 hours. Then, the supernatant was obtained and the expression level of IL-6 was checked by ELISA. Also, the Western blot was performed and the phosphorylation of NF-κB was checked to identify the mechanism of immune activation response. Thereafter, LPS and ATP were used to induce an inflammasome response caused by bacterial infection, LPS and ATP were used. First, 1 mg/ml LPS and L- or D-MQP-37 and MQP-37A6 were mixed in a serum-free cell culture medium and treated with 1×10^5 cells of IC21. Then, 5 mM ATP and MQP-37 or MQP-37A6 were mixed in a serum-free cell culture medium and treated for 30 minutes. Thereafter, the supernatant was obtained and the expression level of IL-1b was checked by ELISA.

Data set [8] has as its system MLE-12. Put plainly: Cytotoxicity at maximum concentration (Example 13). The data set is classed as cell-based, mouse. Conditions: at the maximum concentration in the experiment; FIG. 13B-F.

Where no end group is shown, it is not given here.

Regarding KRLLFWIFIK [MQP-Y9], in data set [1], the “expression level of IFN-b with various concentrations of peptide” value is “decreased in a concentration-dependent manner” and the “expression level of IFN-b” value was “decreased”. In addition, the “cytotoxicity (XTT)” value in data set [2] is given as “did not exhibit any cytotoxicity”. Also, the “production of IL-1b after LPS and nigericin treatment” value in data set [3] is given as “inhibited in an MQP-Y9 concentration-dependent manner”. Further, in data set [4], the “expression level of IL-6 after LPS treatment with various concentrations of peptide” value is reported as “decreased in a concentration-dependent manner”. Moreover, the “phosphorylation amount of NF-κB” value in data set [5] is listed as “significantly decreased”.
As to “MQP-15: novel peptide complementary to a MAVS domain sequence (hydropathic complementarity); sequence not tied to the code in the text (LKSLKTLH; MQP-15)”, in data set [6], the “aggregation of MAVS proteins” value was “decreased”. Further, the “expression level of IFN-b” value in data set [1] is on record as “decreased”.
With “MQP-23: novel peptide complementary to a MAVS domain sequence (hydropathic complementarity); sequence not tied to the code in the text (LQHLEDGM; MQP-23)”, the “aggregation of MAVS proteins” value in data set [6] was “decreased”. For the same substance, the “expression level of IFN-b” value in data set [1] was “decreased”.
For “MQP-31: novel peptide complementary to a MAVS domain sequence (hydropathic complementarity); sequence not tied to the code in the text (DGTECR; MQP-31)”, in data set [6], the “aggregation of MAVS proteins” value is “decreased”. Also, the “expression level of IFN-b” value in data set [1] is given as “decreased”.
As to “MQP-37A1: prepared by substituting the first amino acid of MQP-37A6 with alanine (ALVLADARW; MQP-37A1)”, the “inflammasome response caused by bacterial infection (IL-1b), first amino acid substituted” value in data set [7] (FIG. 10A-A) is “most effectively”.
Regarding “MQP-37D6H: MQP-37 whose sixth amino acid (aspartic acid) is substituted with histidine (SLVLAHARW; MQP-37D6H)”, the “inflammatory response caused by viral infection (IFN-b)” value in data set [1] (FIGS. 13A-C and 13A-D) is “inhibited the inflammatory response caused by viral infection in a concentration-dependent manner”. In addition, the “inflammasome response caused by bacterial infection (IL-1b), sixth amino acid of MQP-37 substituted” value in data set [7] (FIG. 10A-B) is “effectively”.
As for “MQP-37D6W: MQP-37 whose sixth amino acid (aspartic acid) is substituted with tryptophan (SLVLAWARW; MQP-37D6W)”, the “inflammatory response caused by viral infection (IFN-b), sixth amino acid of MQP-37 substituted, compared to the original peptide” value in data set [1] (2 mM peptide, FIG. 10B-C) is recorded as “effectively inhibited even at a low peptide concentration”. The “inhibiting the inflammatory response caused by viral infection (IFN-b), compared to MQP-37 and MQP-37A6” value in data set [1] (concentration-dependent, FIGS. 13A-A and 13A-B) was “outstanding effect”.
“MQP-T234: novel anti-inflammatory peptide prepared in Example 1 (KVGDRARWGSRS; MQP-T234)”: the “expression level of IFN-b” value in data set [1] is on record as “decreased”.
For the substance SLVLADARW [MQP-37], in data set [2], the “cytotoxicity (XTT)” value was “did not exhibit any cytotoxicity”.
Consider SLVLAYARW [MQP-37D6Y], for which the cytotoxicity result in data set [8] is “did not show cytotoxicity”.

These data come from patent US12729221B2, “Anti-inflammatory peptide and use thereof” (MITO QUEST CO., LTD., priority 2020, dated 2026).
